Data on seven compounds can be found in publication PMC2937036 (PLoS ONE, 2010).

SMILES strings stand for the structures. Where a SMILES comes first, the peptide text is derived from it. Bridges are numbered along the chain shown (N, C = ends). Bounds are passed on as bounds.

Series [1] has as its system Staphylococcus aureus 42D. The series can be described thus: Bactericidal assay (LD99.9), S. aureus in 25% human serum. It is filed as cell-based. Conditions: unit not given (Table 3 uses µM). As for the experimental part: In order to be able to make a direct comparison with our serum stability measurements, a few peptides were selected to be tested for antimicrobial activity in 25% human serum (Table 4). […] All LD99.9 values are higher compared to the initial assays in 10 mM sodium phosphate buffer. Contributing factors to this general loss in activity could be the increased ionic concentration, interactions with serum components such as albumin or other proteins, and peptide degradation. Both hexamers with unprotected termini, Lfc1 and Com1, are no longer active while the cyclized short peptides remained fairly antimicrobial. In human serum, Lfc5 and Lfc6 are equally anti-staphylococcal. This reflects a greater loss of activity for Lfc6, but also coincides with the lower serum stability that this peptide has compared to Lfc5 (Fig. 2C). The activities of the cyclized Com peptides were all lowered equally with a 16-fold increase in LD99.9 values compared to activities in serum-excluded media and this agrees with their similar stability profiles (Fig. 2D).
(§1) The peptides were tested for microbicidal activities against Bacillus subtilis ATCC6633, Escherichia coli ML35, and Staphylococcus aureus 42D as previously described. Suspensions of logarithmically growing test bacteria were incubated on a microtiter plate at a concentration of 10^5 colony-forming units/mL with various peptide dilutions. The medium was 100 µL of 10 mM phosphate buffer pH 7.0 supplemented with 1% (v/v) of tryptic soy broth (TSB). For later assays, human male serum was also added to a final concentration of 25%. 10 µL aliquots were collected at time 0 h and after 2 h of incubation on a rotary shaker (300 rpm) at 37°C. These were plated on blood agar plates and incubated overnight at 37°C. The Lethal Dose concentration (LD99.9) was determined, corresponding to the concentration killing >99.9% of the inoculum at 2 h. These experiments were performed in duplicate.
(§2) For the testing of the peptides' activities in different conditions, e.g. with serum, we use the same cut-off for activity as defined for Minimum Bactericidal Concentration (MBC), i.e. a 1000-fold reduction of the inoculum. However, we designate this peptide concentration with the more general term LD99.9 which can be applied to the specified conditions of the experiments performed here.

In series [2] the test system is Escherichia coli ML35. Nature of the series: Bactericidal assay (LD99.9), E. coli. In kind it is cell-based. Conditions: 10 mM phosphate buffer pH 7.0 with 1% TSB, 2 h, 37°C. How it is done: as §1, §2
The test system of series [3] is Staphylococcus aureus 42D. Nature of the series: Bactericidal assay (LD99.9), S. aureus. It is filed as cell-based. The conditions noted are these: 10 mM phosphate buffer pH 7.0 with 1% TSB, 2 h, 37°C. As for the experimental part:
as §1, §2

The test system of series [4] is Bacillus subtilis ATCC6633. The series can be described thus: Bactericidal assay (LD99.9), B. subtilis. It is filed as cell-based. Conditions: 10 mM phosphate buffer pH 7.0 with 1% TSB, 2 h, 37°C. How it is done:
as §1, §2

The nature of series [5]: in vitro. Conditions: 25% human male serum; for intact peptide after 2 h: 37°C. How it is done:
To investigate the effects of the modifications on proteolytic susceptibility, the disappearance of the intact peptides incubated in diluted human serum at 37°C was followed by RP-HPLC. […] Incubations were normally done for 9 h and, in some cases, longer.
Peptide stabilities were assayed in diluted serum as previously described. 25% human male serum was centrifuged at 13,000 rpm for 10 min to remove lipids and the supernatant was collected and incubated at 37°C for at least 15 min. The assay was initiated upon the addition of the test peptide to the serum for a final peptide concentration of 5 µM. 200 µL aliquots of the incubations were taken for the following time points: 0, 30, 75, 120, 240, 390 and 540 min. The aliquots were mixed with 40 µL of 15% trichloroacetic acid (TCA) and incubated at 4°C for at least 15 min to precipitate serum proteins. In the case of Com5 and Com6, 5 µL of 1 M NaOH was supplemented to the TCA to prevent peptide precipitation. The supernatant was collected for each sample after centrifugation at 13,000 rpm for 10 min and stored at −20°C. These assays were performed in triplicate.
Reverse phase high performance liquid chromatography (RP-HPLC) analysis was performed with an AKTA Purifier from Amersham Biosciences (Westborough, MA) using an uRPC C2/C18 ST 4.6/100 column from Pharmacia Biotech (SanJose, CA) of the following dimensions: bed length 100 mm, i.d. 4.6 mm, 120Å. Individually thawed samples were injected through a 100 µL loop, after which a linear gradient was run from 100% solution A (0.05% trifluoroacetic acid (TFA) in filtered water) to 100% solution B (0.045% TFA in 90% acetonitrile) with a flow rate at 0.5 mL/min. The relative concentrations of the remaining soluble peptides were analyzed by the integration of the absorbance at 215 nm as a function of retention time using the Analysis module of the Unicorn software package.

One may read the half-life as the time in which the quantity being followed falls by half. A word on the amount remaining: it is the share of the starting amount still present when the sample was taken. The low end stands for more turnover, the high end for less turnover.

On to `N=C(N)NCCC[C@H](NC(=O)[C@H](Cc1c[nH]c2ccccc12)NC(=O)[C@H](Cc1c[nH]c2ccccc12)NC(=O)[C@H](CCCNC(=N)N)NC(=O)[C@@H](N)CCCNC(=N)N)C(=O)N[C@@H](Cc1ccccc1)C(=O)O` [Com1, RRWWRF] (H-RRWWRF-OH), for which the “LD99.9 anti-S. aureus in 25% human serum” value in series [1] was more than 120. In series [2], the “99.9% Lethal Dose Concentration (LD99.9) E. coli” value is 60 µM. Moreover, in series [3], the “99.9% Lethal Dose Concentration (LD99.9) S. aureus” value is recorded as 7.5 µM. The “99.9% Lethal Dose Concentration (LD99.9) B. subtilis” value in series [4] was 1.9 µM. The “intact peptide after 2 h” value in series [5] was “completely gone”. The same compound returned a half-life at 5 µM in series [5] (male, human) of less than 0.5 h.
For the compound `CC(=O)N[C@@H](CCCNC(=N)N)C(=O)N[C@@H](CCCNC(=N)N)C(=O)N[C@@H](Cc1c[nH]c2ccccc12)C(=O)N[C@@H](Cc1c[nH]c2ccccc12)C(=O)N[C@@H](CCCNC(=N)N)C(=O)N[C@@H](Cc1ccccc1)C(=O)O` [Com3, CH3CO-RRWWRF] (Ac-RRWWRF-OH), in series [2], the “99.9% Lethal Dose Concentration (LD99.9) E. coli” value is given as 120 µM. In series [3], the “99.9% Lethal Dose Concentration (LD99.9) S. aureus” value came out at 30 µM. For the same compound, the “99.9% Lethal Dose Concentration (LD99.9) B. subtilis” value in series [4] came out at 7.5 µM. The “intact peptide after 2 h” value in series [5] is recorded as “almost fully degraded”. The same compound showed a half-life at 5 µM in series [5] (male, human) of approximately 1 h.
With `N=C(N)NCCC[C@@H]1NC(=O)[C@H](CCCNC(=N)N)NC(=O)[C@H](Cc2ccccc2)NC(=O)[C@H](CCCNC(=N)N)NC(=O)[C@H](Cc2c[nH]c3ccccc23)NC(=O)[C@H](Cc2c[nH]c3ccccc23)NC1=O` [Com5, -RRWWRF-] (cyclo(RRWWRF)), in series [1], the “LD99.9 anti-S. aureus in 25% human serum” value is 30. Also, in series [2], the “99.9% Lethal Dose Concentration (LD99.9) E. coli” value stood at 30 µM. The “99.9% Lethal Dose Concentration (LD99.9) S. aureus” value in series [3] was determined as 7.5 µM. Also, the “99.9% Lethal Dose Concentration (LD99.9) B. subtilis” value in series [4] is listed as not above 0.45 µM. Moreover, in series [5] (male, human), the fraction remaining at 6.5 h, 5 µM is more than 70% and the fraction remaining at 24 h, 5 µM is approximately 50%.
With `N=C(N)NCCC[C@@H]1NC(=O)[C@H](Cc2c[nH]c3ccccc23)NC(=O)[C@H](Cc2c[nH]c3ccccc23)NC(=O)[C@H](CCCNC(=N)N)NC(=O)[C@H](CCCNC(=N)N)NC(=O)[C@@H](N)CSSC[C@@H](C(N)=O)NC(=O)[C@H](Cc2ccccc2)NC1=O` [Com6, CRRWWRFC-NH2] (H-CRRWWRFC-NH2; disulfide 1-8), the “LD99.9 anti-S. aureus in 25% human serum” value in series [1] is listed as 15. Also, the “99.9% Lethal Dose Concentration (LD99.9) E. coli” value in series [2] was 3.8 µM. Besides, in series [3], the “99.9% Lethal Dose Concentration (LD99.9) S. aureus” value was determined as 0.9 µM. Further, the “99.9% Lethal Dose Concentration (LD99.9) B. subtilis” value in series [4] is 0.9 µM. In series [5] (male, human), the share remaining at 6.5 h, 5 µM is approximately 50%.
`CC(=O)N[C@@H](CCCNC(=N)N)C(=O)N[C@@H](CCCNC(=N)N)C(=O)N[C@@H](Cc1c[nH]c2ccccc12)C(=O)N[C@@H](CCC(N)=O)C(=O)N[C@@H](Cc1c[nH]c2ccccc12)C(=O)N[C@@H](CCCNC(=N)N)C(=O)O` [Lfc3, CH3CO-RRWQWR] (Ac-RRWQWR-OH): the “99.9% Lethal Dose Concentration (LD99.9) E. coli” value in series [2] is 120 µM. For the same compound, the “99.9% Lethal Dose Concentration (LD99.9) S. aureus” value in series [3] is recorded as more than 120 µM. Moreover, the “99.9% Lethal Dose Concentration (LD99.9) B. subtilis” value in series [4] is recorded as 60 µM. Besides, in series [5], the “intact peptide after 2 h” value is “almost fully degraded”. Also, the half-life at 5 µM in series [5] (male, human) is approximately 1 h.
Consider `CC(=O)N[C@@H](CCCNC(=N)N)C(=O)N[C@@H](CCCNC(=N)N)C(=O)N[C@@H](Cc1c[nH]c2ccccc12)C(=O)N[C@@H](CCC(N)=O)C(=O)N[C@@H](Cc1c[nH]c2ccccc12)C(=O)N[C@@H](CCCNC(=N)N)C(N)=O` [Lfc4, CH3CO-RRWQWR-NH2] (Ac-RRWQWR-NH2), for which the “99.9% Lethal Dose Concentration (LD99.9) E. coli” value in series [2] is 15 µM. Further, the “99.9% Lethal Dose Concentration (LD99.9) S. aureus” value in series [3] amounted to 60 µM. Further, the “99.9% Lethal Dose Concentration (LD99.9) B. subtilis” value in series [4] is 3.8 µM. In series [5] (male, human), this compound gave a half-life at 5 µM of approximately 1.5 h.
With `N=C(N)NCCC[C@@H]1NC(=O)[C@H](Cc2c[nH]c3ccccc23)NC(=O)[C@H](CCC(N)=O)NC(=O)[C@H](Cc2c[nH]c3ccccc23)NC(=O)[C@H](CCCNC(=N)N)NC(=O)[C@H](CCCNC(=N)N)NC(=O)[C@@H](N)CSSC[C@@H](C(N)=O)NC1=O` [Lfc6, CRRWQWRC-NH2] (H-CRRWQWRC-NH2; disulfide 1-8), in series [1], the “LD99.9 anti-S. aureus in 25% human serum” value is recorded as 60.
